Data published in PubChem BioAssay AID278 (DTP/NCI, 2004).
“And” between values parts separate entries of the source, which are not always exact repeats. Equal values may be shown once. Results filed as inconclusive are left out.

System: nude mice, A549 intrarenal xenograft, tumor weight change
Assay: NCI In Vivo Anticancer Drug Screen. Data for tumor model A549 Human Adenocarcinoma of Lung with characteristics of Type II Alveolar Epithelial cells (intrarenal inoculation) in NU/NU BALB/C (nude) mice
Details: endpoint: mean tumor weight change, schedule: Q04DX003 (ip), higher = larger tumour
Outline: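 Mice bearing transplantable tumors were treated and survival or tumor size recorded. Values are given as treated-group measurement divided by vehicle-control measurement (T/C).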

[1] = dose: 37.5 mg/kg/injection, vehicle: Klucel (hydroxypropylcellulose) (HPC)
[2] = dose: 75.0 mg/kg/injection, vehicle: Klucel (hydroxypropylcellulose) (HPC)
[3] = dose: 150.0 mg/kg/injection, vehicle: Klucel (hydroxypropylcellulose) (HPC)
[4] = dose: 25.0 mg/kg/injection, vehicle: saline
[5] = dose: 50.0 mg/kg/injection, vehicle: saline
[6] = dose: 100.0 mg/kg/injection, vehicle: saline
[7] = dose: 30.0 mg/kg/injection, vehicle: saline
[8] = dose: 75.0 mg/kg/injection, vehicle: saline with Tween-80
[9] = dose: 150.0 mg/kg/injection, vehicle: saline with Tween-80
[10] = dose: 300.0 mg/kg/injection, vehicle: saline with Tween-80
[11] = dose: 150.0 mg/kg/injection, vehicle: suspension in saline
[12] = dose: 300.0 mg/kg/injection, vehicle: suspension in saline
[13] = dose: 600.0 mg/kg/injection, vehicle: suspension in saline
[14] = dose: 1200.0 mg/kg/injection, vehicle: suspension in saline
[15] = dose: 30.0 mg/kg/injection, vehicle: saline with Tween-80
[16] = dose: 60.0 mg/kg/injection, vehicle: saline with Tween-80
[17] = dose: 120.0 mg/kg/injection, vehicle: saline with Tween-80
[18] = dose: 6.25 mg/kg/injection, vehicle: saline
[19] = dose: 12.5 mg/kg/injection, vehicle: saline
[20] = dose: 600.0 mg/kg/injection, vehicle: saline with Tween-80
[21] = dose: 25.0 mg/kg/injection, vehicle: saline with Tween-80
[22] = dose: 50.0 mg/kg/injection, vehicle: saline with Tween-80

## COC1CC2C=C(C)/C=C/C=C/C(=O)NC(c3ccccc3)C/C=C/CCC(O)CC(=O)C2=C1O (configuration not stated)
[1]
  T/C: 17 % of control
[2]
  T/C: 115 % of control
[3]
  T/C: 113 % of control

## Cc1ccc(C(=O)Nc2ccc(S(=O)(=O)O)c3cc(S(=O)(=O)O)cc(S(=O)(=O)O)c23)cc1NC(=O)c1cccc(NC(=O)Nc2cccc(C(=O)Nc3cc(C(=O)Nc4ccc(S(=O)(=O)O)c5cc(S(=O)(=O)O)cc(S(=O)(=O)O)c45)ccc3C)c2)c1
[4]
  T/C: 99 % of control
[5]
  T/C: 100 % of control
[6]
  T/C: 112 % of control

## O=S(=O)(O)c1cc(N=C=S)ccc1/C=C/c1ccc(N=C=S)cc1S(=O)(=O)O
dose: 3.75 mg/kg/injection, vehicle: saline
  T/C: 107 % of control
dose: 7.5 mg/kg/injection, vehicle: saline
  T/C: 64 % of control
[7]
  T/C: 118 % of control

## c1ccc(OCC2CO2)c(OCC2CO2)c1 (configuration not stated)
[8]
  T/C: 89 % of control
[9]
  T/C: -20 % of control
[10]
  T/C: 9 % of control

## O=c1[nH]cnc2c1nnn2C1OC(CO)C(O)C1O (configuration not stated)
[11]
  T/C: 83 % of control
[12]
  T/C: 47 % of control
[13]
  T/C: 32 % of control
[14]
  T/C: 38 % of control

## COc1ccc(N=N/N=c2\sc3cc(OC)ccc3n2C)cc1
[15]
  T/C: 100 % of control
[16]
  T/C: 87 % of control
[17]
  T/C: 73 % of control
dose: 240.0 mg/kg/injection, vehicle: saline with Tween-80
  T/C: 37 % of control

## COc1ccc(C[C@@H]2NC[C@@H](O)[C@@H]2OC(C)=O)cc1
dose: 37.5 mg/kg/injection, vehicle: saline with Tween-80
  T/C: 87 % of control
[8]
  T/C: 48 % of control
[9]
  T/C: 86 % of control

## CS(=O)(=O)CS(=O)(=O)OCCF
[18]
  T/C: 40 % of control
[19]
  T/C: 62 % of control
[4]
  T/C: 50 % of control
[5]
  T/C: 50 % of control

## COc1cccc2c1C(=O)c1c(O)c3c(c(O)c1C2=O)C[C@@](O)(C(=O)CO)C[C@@H]3OC1CC(N)C(O)C(C)O1 (some centres not stated)
dose: 2.0 mg/kg/injection, vehicle: saline
  T/C: 11 % of control and 13 % of control and 25 % of control
dose: 4.0 mg/kg/injection, vehicle: saline
  T/C: 9 % of control and 13 % of control and 20 % of control
dose: 8.0 mg/kg/injection, vehicle: saline
  T/C: 7 % of control and -9 % of control and -8 % of control

## CCCCCC[Se][Se]CCCCCC
dose: 10.0 mg/kg/injection, vehicle: Klucel (hydroxypropylcellulose) (HPC)
  T/C: 106 % of control
dose: 20.0 mg/kg/injection, vehicle: Klucel (hydroxypropylcellulose) (HPC)
  T/C: 38 % of control
dose: 40.0 mg/kg/injection, vehicle: Klucel (hydroxypropylcellulose) (HPC)
  T/C: 70 % of control
dose: 80.0 mg/kg/injection, vehicle: Klucel (hydroxypropylcellulose) (HPC)
  T/C: 71 % of control

## CC(O)CCC(=O)c1ccoc1 (configuration not stated)
dose: 24.0 mg/kg/injection, vehicle: saline
  T/C: 186 % of control
dose: 32.0 mg/kg/injection, vehicle: saline
  T/C: 82 % of control

## Nc1n[nH]c2ccccc12
[9]
  T/C: 69 % of control
[10]
  T/C: 52 % of control
[20]
  T/C: 33 % of control

## CC1/C=C/C=C/CC/C=C/C=C/C=C/C=C/C(OC2OC(C)C(O)C(N)C2O)CC2OC(CC(O)C(O)CCC(O)CC(O)CC(O)CC(=O)OC(C)C(C)C1O)CC(O)C2C(=O)O (configuration not stated)
[21]
  T/C: 97 % of control
[22]
  T/C: 69 % of control
dose: 100.0 mg/kg/injection, vehicle: saline with Tween-80
  T/C: 62 % of control

## Cc1cc(Br)c2nsnc2c1[N+](=O)[O-]
[9]
  T/C: 7 % of control and 26 % of control
dose: 1200.0 mg/kg/injection, vehicle: saline with Tween-80
  T/C: 38 % of control

## O=C1c2cccc(NCCCNCCO)c2C(=O)c2cccc(NCCCNCCO)c21
dose: 12.5 mg/kg/injection, vehicle: acid diluted with saline
  T/C: 108 % of control
dose: 25.0 mg/kg/injection, vehicle: acid diluted with saline
  T/C: 70 % of control

## C/C(=N\NC(=S)N1CC2CCC(CC2)C1)c1nccs1
dose: 12.5 mg/kg/injection, vehicle: saline with Tween-80
  T/C: 62 % of control
[21]
  T/C: 47 % of control
[22]
  T/C: 32 % of control

## CNC(=O)/C=C/C1=CN2C(=O)c3ccc(C)c(O)c3NC(OC)C2C1 (configuration not stated)
dose: 100.0 micrograms/kg/injection, vehicle: saline
  T/C: 1 % of control
dose: 200.0 micrograms/kg/injection, vehicle: saline
  T/C: 20 % of control
dose: 400.0 micrograms/kg/injection, vehicle: saline
  T/C: 29 % of control
dose: 800.0 micrograms/kg/injection, vehicle: saline
  T/C: -17 % of control

## CCCCN1C(=O)N(c2ccc(OCC)cc2)C2N(CCCC)C1C(C)(C)C2(C)C (configuration not stated)
dose: 15.0 mg/kg/injection, vehicle: saline with Tween-80
  T/C: 60 % of control
[15]
  T/C: 51 % of control
[16]
  T/C: 88 % of control
[17]
  T/C: 94 % of control

## C/C(=N\NC(=O)c1ccccc1O)c1cccc(/C(C)=N/NC(=O)c2ccccc2O)n1
[4]
  T/C: 97 % of control
[5]
  T/C: 71 % of control
[6]
  T/C: 65 % of control
dose: 200.0 mg/kg/injection, vehicle: saline
  T/C: 77 % of control

## O=C1CN(CO)C(=O)N1CO
[5]
  T/C: 172 % of control
dose: 400.0 mg/kg/injection, vehicle: saline
  T/C: 120 % of control

## S=C(NCNC(=S)c1ccncc1)c1ccncc1
[9]
  T/C: 420 % of control
[10]
  T/C: 260 % of control
[20]
  T/C: 317 % of control

## COC12[C@@H]3N[C@@H]3CN1C1=C(C(=O)C(NCCSSCCNC3=C(C)C(=O)C4=C(C3=O)C(COC(N)=O)[C@]3(OC)C5N[C@@H]5CN43)=C(C)C1=O)[C@@H]2COC(N)=O (some centres not stated)
dose: 1.57 mg/kg/injection, vehicle: DMSO
  T/C: 29 % of control
dose: 3.13 mg/kg/injection, vehicle: DMSO
  T/C: -77 % of control
dose: 6.25 mg/kg/injection, vehicle: DMSO
  T/C: -33 % of control
dose: 12.5 mg/kg/injection, vehicle: DMSO
  T/C: 2 % of control

## CC(=O)/C(=C\c1ccc(Cl)c(Cl)c1)C(=O)CCN(C)C
[19]
  T/C: 78 % of control
[4]
  T/C: 39 % of control
[5]
  T/C: 32 % of control

## CCOC(=O)c1ccc(NN=NCCF)cc1
dose: 75.0 mg/kg/injection, vehicle: distilled water + Tween-80 + alcohol
  T/C: 114 % of control
dose: 150.0 mg/kg/injection, vehicle: distilled water + Tween-80 + alcohol
  T/C: 160 % of control
dose: 300.0 mg/kg/injection, vehicle: distilled water + Tween-80 + alcohol
  T/C: 63 % of control

## CCN(CC)CC(C)(C)C(=O)/C=C/c1ccc(/C=C/C(=O)C(C)(C)CN(CC)CC)cc1
dose: 15.0 mg/kg/injection, vehicle: saline
  T/C: 84 % of control
[7]
  T/C: 73 % of control
dose: 60.0 mg/kg/injection, vehicle: saline
  T/C: 82 % of control

## CC1=C(C(N)=O)C(c2ccccc2)NC(=S)N1 (configuration not stated)
[1]
  T/C: 66 % of control
[2]
  T/C: 92 % of control
[3]
  T/C: 83 % of control
dose: 300.0 mg/kg/injection, vehicle: Klucel (hydroxypropylcellulose) (HPC)
  T/C: 181 % of control

## CCOc1ccc(-c2nc3ccc(-c4nc5ccc(N6CCN(C)CC6)cc5[nH]4)cc3[nH]2)cc1
[18]
  T/C: 155 % of control
[4]
  T/C: 101 % of control
[5]
  T/C: 171 % of control

## CN1COc2c(n(C)c(=O)[nH]c2=O)C1
[11]
  T/C: 97 % of control
[12]
  T/C: 46 % of control
[13]
  T/C: 88 % of control
[14]
  T/C: 67 % of control

## CCCCCCNc1nc(NCCCCCC)c2[nH]c(NCCCCCC)nc2n1
[8]
  T/C: 52 % of control
[9]
  T/C: 117 % of control
